Test results: patent publication US20240150377A1, “MODULATORS OF CYSTIC FIBROSIS TRANSMEMBRANE CONDUCTANCE REGULATOR” (VERTEX PHARMACEUTICALS INCORPORATED, priority 2020, published 2024)

Target: T1, CFTR (Homo sapiens, UniProt P13569, DEL508-508)
T1 construct: endogenous in cells; host or cells: primary human bronchial epithelial cells from CF subjects (F508del/MF-HBE), differentiated at air-liquid interface
Test: HBE2 assay: Ussing chamber assay of CFTR-mediated short-circuit currents
Type: cell-based
Details: F508del/MF-HBE cells, with 44 nM potentiator, 18-24 hours, 20% human serum; for Emax: read-out: HBE2 Max activity (%)
Method in brief: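 Corrector activity read as CFTR-dependent ISC (μA/cm^2): peak forskolin current minus post-inhibitor steady state. Measured at 37 °C, voltage clamp at 0 mV, on F508del/MF-HBE epithelia grown >14 days air-liquid interface in Ussing chambers.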

T1 sequence (P13569 with tags, fused parts or gaps DEL508-508): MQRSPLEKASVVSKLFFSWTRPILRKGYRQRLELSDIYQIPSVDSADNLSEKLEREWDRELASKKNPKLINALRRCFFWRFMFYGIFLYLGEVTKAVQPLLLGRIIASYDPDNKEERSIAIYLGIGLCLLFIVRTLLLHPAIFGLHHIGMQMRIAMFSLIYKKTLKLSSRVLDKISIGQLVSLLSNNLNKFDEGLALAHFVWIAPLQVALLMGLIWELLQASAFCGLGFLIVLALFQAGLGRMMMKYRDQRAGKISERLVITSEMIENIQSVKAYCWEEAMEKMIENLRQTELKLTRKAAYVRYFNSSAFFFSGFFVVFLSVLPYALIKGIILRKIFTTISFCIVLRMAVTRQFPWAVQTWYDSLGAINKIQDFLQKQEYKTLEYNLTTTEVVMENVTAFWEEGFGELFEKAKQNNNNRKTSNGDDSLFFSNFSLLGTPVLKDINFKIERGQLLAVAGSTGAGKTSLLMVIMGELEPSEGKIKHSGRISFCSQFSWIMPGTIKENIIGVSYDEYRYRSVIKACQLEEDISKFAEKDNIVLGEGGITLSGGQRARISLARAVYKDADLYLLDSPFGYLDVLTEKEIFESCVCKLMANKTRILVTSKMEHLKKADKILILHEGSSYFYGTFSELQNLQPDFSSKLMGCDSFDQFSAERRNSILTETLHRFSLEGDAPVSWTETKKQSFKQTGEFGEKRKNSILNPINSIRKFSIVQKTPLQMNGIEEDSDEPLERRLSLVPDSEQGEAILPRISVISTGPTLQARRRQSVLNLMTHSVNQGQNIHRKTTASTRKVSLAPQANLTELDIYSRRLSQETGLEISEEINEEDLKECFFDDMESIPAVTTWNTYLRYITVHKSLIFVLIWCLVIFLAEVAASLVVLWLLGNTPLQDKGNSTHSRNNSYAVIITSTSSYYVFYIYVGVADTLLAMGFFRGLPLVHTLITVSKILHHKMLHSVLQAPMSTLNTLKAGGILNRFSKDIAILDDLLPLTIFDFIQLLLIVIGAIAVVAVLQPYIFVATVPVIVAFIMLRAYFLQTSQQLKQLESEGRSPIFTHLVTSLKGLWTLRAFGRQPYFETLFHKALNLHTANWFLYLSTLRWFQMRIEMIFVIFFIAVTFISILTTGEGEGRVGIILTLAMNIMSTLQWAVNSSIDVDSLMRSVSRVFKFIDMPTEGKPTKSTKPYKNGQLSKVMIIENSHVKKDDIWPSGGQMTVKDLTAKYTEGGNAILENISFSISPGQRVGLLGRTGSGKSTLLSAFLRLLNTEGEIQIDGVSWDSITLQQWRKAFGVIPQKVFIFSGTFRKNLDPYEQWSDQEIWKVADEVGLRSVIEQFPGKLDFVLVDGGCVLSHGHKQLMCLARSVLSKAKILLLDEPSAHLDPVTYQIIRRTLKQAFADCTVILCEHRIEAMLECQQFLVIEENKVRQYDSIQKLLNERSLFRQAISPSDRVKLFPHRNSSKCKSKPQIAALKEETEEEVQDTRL

HBE2 Activity at 3 μM (%) (3 μM)	HBE2 Activity at 3 μM (%) (3 μM corrector)	SMILES	also measured
+++ (+++ is >60+)	–	Cc1cccc(C)c1-c1cc2nc(n1)NS(=O)(=O)c1cccc(c1)C(=O)N(Cc1cncc(N(C)C3CCC3)n1)[C@H](CC1(C(F)(F)F)CC1)CO2 [Compound 1688]	EC50: < 1 µM; Emax: > 60%
+++ (+++ is >60+)	–	Cc1cccc(C)c1-c1cc2nc(n1)NS(=O)(=O)c1cccc(c1)C(=O)N(Cc1cccc(N3CCC[C@@]3(C)CO)n1)[C@H](CC(C)(C)C)CO2 [Compound 1586]	–
–	+++ (+++ is >60+)	COC[C@H]1CCCCN1c1cncc(CN2C(=O)c3cccc(c3)S(=O)(=O)Nc3nc(cc(-c4c(C)cccc4C)n3)OC[C@H]2CCC(C)(C)C)n1 [Compound 1857]	–
–	–	Cc1cccc(C)c1-c1cc2nc(n1)NS(=O)(=O)c1cccc(c1)C(=O)N(Cc1cncc(NC3CCC3)n1)[C@H](CC(C)(C)C)CO2 [Compound 1603]	EC50: < 1 µM; Emax: > 60%
+++ (+++ is >60+)	–	Cc1cccc(C)c1-c1cc2nc(n1)NS(=N)(=O)c1cccc(c1)C(=O)N(Cc1ncc(OC(C)C)cn1)[C@H](CC(C)(C)C)CO2 (stereo partly shown) [Compound 1575]	–
–	+++ (+++ is >60+)	Cc1cccc(C)c1-c1cc2nc(n1)NS(=O)(=O)c1cccc(c1)C(=O)N(Cc1cncc(N3CCO[C@@H](C)[C@H]3C)n1)[C@H](CC(C)(C)C)CO2 [Compound 1761]	–
+++ (+++ is >60+)	–	Cc1cccc(C)c1-c1cc2nc(n1)NS(=O)(=O)c1cccc(c1)C(=O)N(Cc1cncc(N(C)c3cnn(C)c3)n1)[C@H](CC(C)(C)C)CO2 [Compound 1636]	–
–	+++ (+++ is >60+)	Cc1cccc(C)c1-c1cc2nc(n1)NS(=O)(=O)c1cccc(c1)C(=O)N(Cc1cncc(N3CC[C@H]3C)n1)[C@H](COC(C)C)CO2 [Compound 1926]	–
–	+++ (+++ is >60+)	Cc1cccc(C)c1-c1cc2nc(n1)NS(=O)(=O)c1cccc(c1)C(=O)N(Cc1cncc(N(C)C3CCC3)n1)[C@H](CC1CC(C)(C)C1)CO2 (single isomer, unassigned) [Compound 1339, 12-[[6-[Cyclobutyl(methyl)amino]pyrazin-2-yl]methyl]-11-[(3,3-dimethylcyclobutyl)methyl]-6-(2,6-dimethylphenyl)-2,2-dioxo-9-oxa-2λ^6-thia-3,5,12,19-tetrazatricyclo[12.3.1.14,8]nonadeca-1(18),4(19),5,7,14,16-hexaen-13-one]	–
+++ (+++ is >60+)	–	Cc1cccc(C)c1-c1cc2nc(n1)NS(=O)(=O)c1cccc(c1)C(=O)N(Cc1ncc(N3CCC(C)(C)C3)cn1)[C@H](CC1(C)CC1)CO2 [Compound 1561]	–
–	+++ (+++ is >60+)	CC[C@@H]1CCN1c1cncc(CN2C(=O)c3cccc(c3)S(=O)(=O)Nc3nc(cc(-c4c(C)cccc4C)n3)OC[C@H]2CC(C)(C)C)n1 [Compound 1721]	–
–	+++ (+++ is >60+)	Cc1cccc(C)c1-c1cc2nc(n1)NS(=O)(=O)c1cccc(c1)C(=O)N(Cc1cncc(N3CC[C@@H]3C(C)C)n1)[C@H](CC1CCCCC1)CO2 (stereo in doubt) [Compound 1887]	–
–	–	Cc1cccc(C)c1-c1cc2nc(n1)NS(=O)(=O)c1cccc(c1)C(=O)N(Cc1cncc(N(C)C3CC(F)(F)C3)n1)[C@H](CC(C)(C)C)CO2 [Compound 1602]	EC50: < 1 µM; Emax: > 60%
+++ (+++ is >60+)	–	CCN(c1cncc(CN2C(=O)c3cccc(c3)S(=O)(=O)Nc3nc(cc(-c4c(C)cccc4C)n3)OC[C@H]2CC(C)(C)C)n1)C1CCC1 [Compound 1579]	EC50: < 1 µM; Emax: > 60%
–	+ (+ is <300))	Cc1cccc(C)c1-c1cc2nc(n1)NS(=O)(=O)c1cccc(c1)C(=O)N(Cc1cncc(N3CCC[C@H]3C)n1)[C@H](CC1CC(C)(C)C1)CO2 [Compound 1900]	–
+++ (+++ is >60+)	–	Cc1cccc(C)c1-c1cc2nc(n1)NS(=O)(=O)c1cccc(c1)C(=O)N(Cc1cncc(N3CC4OCC[C@@H]43)n1)[C@H](CC(C)(C)C)CO2 (stereo in doubt) [Compound 1628]	–
